Measurements: PMC6459484, “Synthetic surfactin analogues have improved anti-PEDV properties” (PLoS ONE, 2019)
Converted amounts (≈) assume the structure as drawn. “Also recorded” adds a separate entry of the source. Square brackets hold non-standard residues; d marks the D form. Peptide text beside a SMILES is read from it. * marks the point of attachment. X1 = CCCCCCCc1ccc(-c2ccc(C(=O)*)cc2)cc1; Palmitoyl = CCCCCCCCCCCCCCCC(=O)*

Tests used:
PEDV = test: Time of addition assay (viral N protein by western blot, viral RNA by qRT-PCR); type: cell-based, Porcine epidemic diarrhea virus; conditions: Vero cells, 1000 PFU PEDV, harvested 12 hpi, SLP5 50 μg/ml, surfactin 20 μg/ml; for PEDV replication (nucleic acid and protein levels), reagent present throughout the experiment (treatment group 2) or at any stage: DEPE 5 μg/ml, 3 independent experiments
Method: Time of addition assay was performed according to the procedures described, with modifications. Confluent Vero cells in 12-well plates were infected with 1000 PFU of PEDV and incubated for 1 hr at 4 °C to synchronize infection. The inoculum was removed and 1 mL of 37 °C DMEM was added to each well, cells were then placed at 37 °C in a humidified incubator. At the indicated time points, SLP5, surfactin, or dielaidoyl-phosphatidylethanolamine (DEPE, AvantiPolarLipids, Alabaster, AL) was added dropwise to cells or virus to a final concentration of 50 μg/ml, 20 μg/ml, or 5 μg/ml and incubated a further 12 hours at 37 °C. Viral nucleic acid and protein levels in the cells were measured by qRT-PCR and western-blot respectively. The data shown is representative of 3 independent experiments.
Total RNA was extracted from cells using TRIzol Reagent (Invitrogen) according to the manufacturer’s instructions. cDNA was generated by reverse transcription using HiScript TM QRT SuperMix for qPCR (Vazyme) according to the manufacturer’s instructions. PEDV nucleic acid levels were assessed by measuring the viral nucleoprotein (N) using qRT-PCR with the TaKaRa SYBR Green qPCR Kit (TaKaRa). Primer sequences were as follows: PEDV-N-F (sense), 5’-[…]-3’; PEDV-N-R (antisense), 5’-[…]-3’; C-sabaeus-GAPDH-F, 5’-[…]-3’; C-sabaeus-GAPDH-R, 5’-[…]-3’. Gene level was calculated using the comparative Ct method and normalized to the endogenous levels of GAPDH.
Boiled cell lysates were subjected to SDS-PAGE then transferred to PVDF membrane (Roche, Basel, Switzerland) using a semi-dry transfer apparatus (GE, Little Chalfont, Buckinghamshire, UK). Membranes were blocked in 5% non-fat milk in TBS containing 0.01% Tween-20 (TBST) then incubated overnight at 4 °C with anti-PEDV N-protein monoclonal antibody (Median Diagnostics, South Korea) diluted in TBST with 1% BSA. Membranes were washed 30 min in TBST followed by incubation for 1 h at RT with 1:5000 HRP goat anti-mouse IgG antibody (ABGENT, San Diego, CA, USA) then thrice washed for 15 min in TBST. Membranes were incubated with ECL reagent (Thermo, Waltham, MA, USA) and imaged using a ChemiDoc™ system (Bio-Rad, Hercules, CA, USA).
Since SLP5 was the most promising surfactin analogue, we chose it for further study. Time of addition assays were performed to determine whether the SLP5 exerts its anti-PEDV effect at the same stage during infection as surfactin. Since surfactin acts directly on virions, the experiment was designed to examine events early in the infection process. Fig 6A summarizes the experimental plan and the eight treatments tested. Briefly, SLP5, surfactin, or DEPE was added to virus alone, cells alone, or to cells and virus together prior to infection, during virus adsorption, during virus invasion (1 h post infection at 37 °C), or during replication (1–12 hpi). Samples were harvested 12 hours after infection, and analyzed to measure cellular levels of viral protein (Fig 6B and 6C) and viral RNA (Fig 6D). […] Other antiviral mechanisms of SLP5 and surfactin cannot be ruled out since PEDV replication is inhibited to different degrees in some of the other treatment groups.
Fig 6 Time-of-addition experiments. (A) Vero cells were treated with SLP5, surfactin, or DEPE at different time points before, during, and after infection. […] (B) The PEDV nucleoprotein was detected by Western-blot, and (C) quantitated by band intensity relative to the internal control, GAPDH. (D) The PEDV genome was detected by qRT-PCR. […]

[1] = Critical micelle concentration by surface tension (ring method); type: physicochemical; conditions: samples stood 30 min at 22 °C, intersection of two linear regression lines
Method: Surface tensions were measured using the ring method. Samples were freshly prepared in a testing flask and allowed to stand for 30 minutes at 22 °C. Surface tension measurements were made using a surface tensiometer (HLD-LST-II, HENLIDA Co., Ltd, China). Linear regressions of the drop and the flat area were performed separately for the surface tension-concentration curve. The concentration at the intersection of the two lines is the critical micelle concentration (CMC).
The CMC was calculated by measuring the surface tension of each SLP over a range of concentrations. […] Linear regressions were performed independently using the data on the descending part of the curve below the CMC and the equilibrium part above the CMC. The intersection of the linear regression lines corresponds to the CMC (Table 3).
Fig 4 Critical micelle concentrations of the SLPs. CMCs were determined for SDS, surfactin, and SLPs by surface tension. The intersection of the two linear regression lines corresponds to the CMC value, (shown by the dotted lines).

PEDV CV777 = test: Plaque reduction assay (anti-PEDV activity); type: cell-based, Porcine epidemic diarrhea virus; conditions: for Antiviral potency relative to SLP3: anti-PEDV plaque reduction, compared with SLP3; for Anti-PEDV potency compared with surfactin: plaque reduction assay, result in words
Method: Cercopithecus aethiops kidney epithelial cells (Vero, ATCC, CCL-81) were cultured in high glucose DMEM (Gibco, US), supplemented with 10% fetal bovine serum (FBS, GIBCO), at 37 °C in a 5% CO2 humidified atmosphere. Cells were routinely seeded at a density of 2×10^5 /mL in plastic tissue culture flasks (25 cm^2 flasks, Corning, USA) and passaged every 3–4 days. PEDV CV777 was provided by the Jiangsu Academy of Agricultural Sciences (JAAS).
Vero cells were seeded at 2 × 10^5 cells/well in 24-well tissue culture plates and incubated 18–24 h at 37 °C until approximately 95% confluency was reached. 100 PFU of PEDV mixed with an equal volume of SLP in DMEM or DMEM alone were incubated 10 minutes at 37 °C, then added into the wells of the Vero cells and incubated 30 minutes at 4 °C. Cells were washed 3 times with DMEM then overlaid with DMEM/1% agar and incubated 72 hours at 37 °C. The cells were fixed with 4% formaldehyde, then stained with 0.1% crystal violet after the agar overlay was removed. The data are representative of 3 biological replicates and each plaque assay was performed in triplicate and values are expressed as means ± the standard deviation. Curve fitting and EC50 were calculated with GraphPad Prism 6 using the log[inhibitor] vs. response equation.
The SLPs were tested for anti-PEDV activity using a plaque reduction assay. Serial dilutions of SLPs were incubated with an equal volume of PEDV then aliquoted onto precooled cells in 12-well plates. After the virus has adsorbed to the cells at 4 °C, SLPs were washed away. The adsorbed virus particles were then counted by plaque forming assays (Fig 2A). The results were fitted to a sigmoid-curve and plotted Fig 2B. All SLPs have potent anti-PEDV effects above 50 μg/ml, but differences in their anti-PEDV effect.
Fig 2 Anti-PEDV activities of lipopeptides. (A) PEDV was incubated with series concentrations of SLPs for 10 minutes at 37 °C. After washing cells of unadsorbed virus, the remaining infectious particles was detected by plaque assay. (B) Anti-PEDV activity (% remaining PFU) plotted as a function of lipopeptide concentration. The results of three independent experiments are shown as means ± standard deviation. 100% represents plaque counts in the control (no lipopeptide) sample.

porcine RBCs = type: cell-based; conditions: for CC50 (50% cytotoxicity concentration, hemolysis): red cells of porcine, 1 h
Method: Hemolytic activity was measured according to the methods described in Jingdan, with some modifications. Briefly, serial dilutions of SLPs were added to 200 uL of a 1% suspension of porcine RBCs in PBS, followed by incubation for 1 h at 37 °C. Cells were centrifuged at 1000 g for 10 min, then 100 uL of each supernatant was transferred to wells of a 96-well plate. The optical density at 540 nm was measured using a microplate reader (Infinite 200 PRO, Tecan Group Ltd., Switzerland) and % hemolysis was calculated using the formula: Hemolysis(%)=ODS-ODB/ODP-ODB×100% where ODS, ODB, and ODP represent the optical density of the SLP-treated samples, negative control and positive control, respectively. 1% Triton X-100 was used for the positive control. Each sample was run in triplicate.
Fig 3 Hemolytic activity of lipopeptides. (A) The indicated concentration of SLPs were added to a 1% porcine RBC suspension in PBS, followed by incubation for 1 h at 37 °C and centrifugation. Pictures were taken after collecting a portion of the supernatant for quantification of hemolysis. (B) Hemolytic curve. Hemolysis (measured at OD540) is shown as a function of SLP concentration. 100% represents the OD obtained using 0.1% Triton X-100-treated red blood cells.

[2] = 100 PFU PEDV pre-incubated with lipopeptide 10 min at 37 °C, adsorbed to Vero cells 30 min at 4 °C, washed, agar overlay 72 h, 3 biological replicates each in triplicate, mean ± SD, log[inhibitor] vs. response fit

Compound	PEDV replication (nucleic acid and protein levels), reagent present throughout the experiment (treatment group 2) or at any stage (PEDV)	CMC [1]	EC50 (PEDV CV777; 72 h)	Antiviral potency relative to SLP3 (PEDV CV777)	Anti-PEDV potency compared with surfactin (PEDV CV777)	CC50 (50% cytotoxicity concentration, hemolysis) (porcine RBCs)	PEDV replication, treatment group 5 (PEDV; same as group 2 (little replication))	Hemolytic activity, result in words (porcine RBCs)	EC50 (PEDV CV777; [2])
CCCCCCCC/C=C/CCCCCCCC(=O)OC[C@H](COP(=O)(O)OCCN)OC(=O)CCCCCCC/C=C/CCCCCCCC [DEPE, dielaidoyl-phosphatidylethanolamine]	did not affect PEDV replication at any stage	–	–	–	–	–	–	–	–
CCCCCCCCCCCCOS(=O)(=O)[O-].[Na+] [SDS, reference compound]	–	296 µg/mL	–	–	–	–	–	–	–
CCCCCCCCCCCCCCCC(=O)N[C@@H](CCC(=O)O)C(=O)N[C@H](C(=O)N[C@H](CC(C)C)C(=O)N[C@H](CC(C)C)C(N)=O)C(C)C [SLP4] (Palmitoyl-EV[dL][dL]-NH2)	–	10.6 µg/mL	5.4 ± 0.4 µg/mL (≈ 7.61 µM)	about 3 fold	higher potency than surfactin	12.9 ± 0.2 µg/mL (≈ 18.2 µM)	–	–	–
CCCCCCCCCCCCCCCC(=O)N[C@@H](CCC(=O)O)C(=O)N[C@H](C(=O)N[C@H](CC(C)C)C(=O)N[C@@H](CC(=O)O)C(=O)N[C@H](CC(C)C)C(=O)O)C(C)C [SLP5] (Palmitoyl-EV[dL]D[dL]-OH)	little PEDV replication occurs	15.0 µg/mL	16.5 ± 0.6 µg/mL (≈ 20 µM)	–	equaled	847.2 ± 124.9 µg/mL (≈ 1030 µM)	act directly on the virus	–	–
CCCCCCCCCCCCCCCC(=O)N[C@@H](CCCCN)C(=O)N[C@H](C(=O)N[C@H](CC(C)C)C(=O)N[C@@H](CCCCN)C(=O)N[C@H](CC(C)C)C(N)=O)C(C)C [SLP6] (Palmitoyl-KV[dL]K[dL]-NH2)	–	22.4 µg/mL	6.1 ± 0.3 µg/mL (≈ 7.29 µM)	–	higher potency than surfactin	12.6 ± 0.4 µg/mL (≈ 15 µM)	–	strongest hemolytic activity	–
CCCCCCCCCCCCCCCC(=O)N[C@@H](CCC(=O)O)C(=O)N[C@H](C(=O)N[C@@H](CC(C)C)C(=O)N[C@@H](CC(=O)O)C(=O)N[C@@H](CC(C)C)C(N)=O)C(C)C [SLP7] (Palmitoyl-EVLDL-NH2)	–	17.1 µg/mL	–	–	–	274.1 ± 21.0 µg/mL (≈ 332 µM)	–	–	14.0 ± 0.6 µg/mL (≈ 17 µM)
CCCCCCCCCCCCCCCC(=O)N[C@@H](CCC(=O)O)C(=O)N[C@H](C(=O)N[C@H](CC(C)C)C(=O)N[C@H](CC(C)C)C(=O)N[C@@H](CC(=O)O)C(N)=O)C(C)C [SLP8] (Palmitoyl-EV[dL][dL]D-NH2)	–	20.2 µg/mL	2.6 ± 0.2 µg/mL (≈ 3.15 µM)	6.5 fold	higher potency than surfactin; also recorded: exceeded	217.5 ± 18.9 µg/mL (≈ 264 µM)	–	low hemolytic activity	–
CCCCCCCCCCCCCCCC(=O)N[C@@H](CCC(=O)O)C(=O)N[C@@H](CC(=O)O)C(=O)N[C@H](C(=O)N[C@H](CC(C)C)C(=O)N[C@H](CC(C)C)C(N)=O)C(C)C [SLP9] (Palmitoyl-EDV[dL][dL]-NH2)	–	9.4 µg/mL	–	–	–	52.2 ± 2.0 µg/mL (≈ 63.3 µM)	–	–	12.8 ± 0.5 µg/mL (≈ 15.5 µM)
CCCCCCCc1ccc(-c2ccc(C(=O)N[C@@H](CCC(=O)O)C(=O)N[C@H](C(=O)N[C@H](CC(C)C)C(=O)N[C@@H](CC(=O)O)C(=O)N[C@H](CC(C)C)C(N)=O)C(C)C)cc2)cc1 [SLP10] (X1-EV[dL]D[dL]-NH2)	–	–	–	–	–	82.8 ± 3.4 µg/mL (≈ 95.7 µM)	–	–	10.6 ± 0.5 µg/mL (≈ 12.3 µM)
